Laboratory results as given in patent US6362212B1, “Oxime derivative and bactericide containing the same as active ingredient” (Shionogi & Company, Ltd., priority 1994, dated 2002).

Legend:
Assay type in all cases: in vivo
[1] = tested on: Pseudoperonospora cubensis; assay: Controlling effect on Pseudoperonospora cubensis by foliage application (pot experiment); details: foliage spray on cucumber (var. TSUKUBASHIROIBO) first leaves, lesion area after 10 days in moist chamber at 20° C.
In short: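 Cucumber plants grown 2–3 weeks were sprayed on first leaves with compound (DMF solution diluted in water with spreader); 24 h later, Pseudoperonospora cubensis zoosporangia suspension dropped on leaves. Plants held in moist chamber at 20° C for 10 days; lesion area observed and percent control calculated.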

Pyricularia oryzae = details: foliage spray on rice seedlings (cv. […]), number of lesions six days after the inoculation
Sphaerotheca fuliginea = assay: Controlling effect on Sphaerotheca fuliginea by foliage application (pot experiment); details: foliage spray on cucumber (cv. TSUKUBASHIROIBO) first leaves, infected area after 10 days in greenhouse at 20° C.
In short: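 First leaves of cucumber seedlings, 2-3 weeks old, were sprayed with compound (DMF solution diluted in water with spreader). They were inoculated 24 h later with a Sphaerotheca fuliginea conidia spray and kept 10 days at 20° C in a greenhouse. Percent control was calculated from infected leaf area.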

[2] = tested on: Erysiphe graminis f. sp. tritici; assay: Controlling effect on Erysiphe graminis f. sp. tritici by foliage application (pot experiment); details: foliage spray on wheat (cv. NORIN No. 61) seedlings, infected area after 10 days in greenhouse at 20° C.
In short: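 Wheat seedlings (cv. NORIN No. 61, 2-3 weeks old) sprayed with compound in DMF diluted in water with spreader, then inoculated with conidia 24 hours later. Kept in greenhouse at 20 °C for 10 days; percent control calculated from infected leaf area.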

Botrytis cinerea = assay: Controlling effect on Botrytis cinerea by foliage application (pot experiment); details: foliage spray on cucumber (cv. TSUKUBASHIROIBO) first leaves, mycelial disks, lesion diameter after 3 days in moist chamber at 20° C.
Method: The following Test Examples illustrate the effects of the fungicide of the present invention. (I. Controlling effects on various plant diseases by foliage application (pot experiment)) A test compound was dissolved in a small amount of N,N-dimethylformamide, and the solution was diluted to a given concentration with distilled water containing a spreader. Thus, a liquid sample to be tested was prepared. The liquid sample was sprayed to test plants, and 24 hours thereafter, pathogens were inoculated by the method described below. […] The seeds of cucumber ([…]) were sown in plastic cups (each 9 cm in diameter), followed by cultivation for 2 to 3 weeks. The test compound in the form of a solution or suspension was sprayed to the surface of their first leaves, and mycelial disks (4 mm φ) of Botrytis cinerea cultured on the potato sucrose agar medium were put on the leaf surfaces to inoculate. the cucumber seedlings with the pathogen. The plants were kept in a moist chamber at 20° C. for 3 days. The diameter of the lesions on the leaves was measured and the percent control was calculated.

Row | Compound | Controlling effect on Pseudoperonospora cubensis by foliage application at 500 ppm (percent control) [1] [percent control] | Controlling effect on PYricularia orYzae by foliage application at 500 ppm (percent control) (Pyricularia oryzae) | Controlling effect on Sphaerotheca fuliginea by foliage application at 500 ppm (percent control) (Sphaerotheca fuliginea) | Controlling effect on ErYsiphe graminis f. sp. tritici by foliage application at 500 ppm (percent control) [2] [percent control] | Controlling effect on Botrytis cinerea by foliage application at 500 ppm (percent control) (Botrytis cinerea)
1 | CON=C(c1cc(C)no1)c1ccccc1COc1ccccc1Cl (single isomer, unassigned) [605A] | 100 | 90 | 100 | 90 | 70
2 | CON=C(c1ccon1)c1ccccc1COc1ccc(C)cc1 (mixture of isomers) [compound 314] | 100 | 90 | 100 | 70 | 70
3 | CON=C(c1nnco1)c1ccccc1COc1ccc(Cl)c(Cl)c1 [compound 732] | 100 | 70 | 100 | 70 | 70
4 | CON=C(c1ccccc1COc1cccc(Cl)c1)c1nccn1C (single isomer, unassigned) [106A] | 100 | 97 | 100 | 70 | 70
5 | CON=C(c1nnco1)c1ccccc1COc1cccc(C)c1 [compound 713] | 100 | 97 | 100 | 90 | 70
6 | CON=C(c1ccccc1COc1ccc(Cl)cc1C)c1nccn1C (single isomer, unassigned) [141A] | 100 | 70 | 100 | 90 | 90
7 | CON=C(c1ccccc1COc1ccc(Cl)c(Cl)c1)c1nccn1C (single isomer, unassigned) [132A] | 100 | 70 | 100 | 70 | 70
